Laboratory results taken from patent publication US7317038B2, “Nerve regeneration promoters containing semaphorin inhibitor as the active ingredient” (Dainippon Sumitomo Pharma Co., Ltd., priority 2000, dated 2008).

What was measured:
Solubility = type: physicochemical
Sema3A = molecular target: T1, Sema3A (Mus musculus, UniProt O08665); assay: Collagen gel co-culture: suppression of neurite outgrowth inhibitory action of Sema3A; type: cell-based; design: key to suppression of neurite outgrowth inhibitory activity of Sema3A, score / inhibition of neurite outgrowth-inhibitory action of Sema3A, score: neurites outgrew in a complete concentric circular shape just like for the control groups where Sema3A-non-expressing COS7 cells were used, it was scored +++ (a strong inhibitory effect for Sema3A); outgrowth was found almost in a concentric circular shape accompanied with a little suppression of the outgrowth toward the direction of Sema3A-expressing COS cells, it was scored ++; outgrowth toward the direction of Sema3A-expressing COS cells is fairly suppressed to present a crescent shape, it was scored +; outgrowth toward the direction of Sema3A-expressing COS cells was not found at all (no inhibitory effect for Sema3A), it was scored −; conditions: Example 16
T1 construct: expressed in transfected cells; host or cells: COS7
T1 sequence (O08665 21-772): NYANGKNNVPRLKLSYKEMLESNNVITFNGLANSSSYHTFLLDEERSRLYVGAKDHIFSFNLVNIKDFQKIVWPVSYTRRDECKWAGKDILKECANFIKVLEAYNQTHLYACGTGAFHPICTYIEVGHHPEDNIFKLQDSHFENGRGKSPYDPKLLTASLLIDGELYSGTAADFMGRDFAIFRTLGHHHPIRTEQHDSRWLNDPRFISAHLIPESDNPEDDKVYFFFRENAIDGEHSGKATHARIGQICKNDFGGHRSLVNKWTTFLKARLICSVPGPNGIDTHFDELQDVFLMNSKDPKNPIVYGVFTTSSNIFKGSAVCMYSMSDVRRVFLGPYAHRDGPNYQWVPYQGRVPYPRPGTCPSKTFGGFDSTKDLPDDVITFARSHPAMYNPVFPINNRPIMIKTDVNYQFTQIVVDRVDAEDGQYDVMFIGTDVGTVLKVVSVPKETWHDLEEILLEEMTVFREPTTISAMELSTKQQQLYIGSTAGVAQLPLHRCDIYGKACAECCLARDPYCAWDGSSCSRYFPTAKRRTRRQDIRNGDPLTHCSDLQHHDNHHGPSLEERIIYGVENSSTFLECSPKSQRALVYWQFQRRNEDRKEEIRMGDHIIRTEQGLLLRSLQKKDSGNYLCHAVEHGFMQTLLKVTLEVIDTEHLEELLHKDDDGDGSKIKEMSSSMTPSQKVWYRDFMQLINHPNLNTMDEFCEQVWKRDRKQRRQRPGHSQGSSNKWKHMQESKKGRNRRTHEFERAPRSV
Method: Whether the object compounds (SPF-3059-1, M162, A721) have persistent inhibitory action to Sema3A was analyzed by the collagen gel co-culture method (Neuroprotocols 4, 116, 1994) using Sema3A-expressing COS7 cell clumps and 7- or 8-day-old chick embryo dorsal root ganglions. The Sema3A-expressing COS7 cell clumps were generated as follows. 1 μg of Sema3A-expression plasmid was introduced into COS7 cells (100000 cells/35 mm culture plate), which were cultured overnight, with the FuGENE6 transfection reagent (Roche). 2.5 hours after the starting of the transfection, the COS7 cells were collected by trypsinization and centrifugation, and re-suspended in a medium of 200 μl. 20 μl of the cell suspension was placed on the lid of the culture plate (inside) and the lid was turned over, and then the suspension was cultivated for 20 hours (hanging drop culture) (Cell 78, 425, 1994). When the culture was over, aggregated COS7 cells (clump) were collected and trimmed to a diameter of 0.5 mm. The Sema3A-expressing COS7 cell clump and the above-mentioned dorsal root ganglions were placed in parallel at a distance of 0.5 to 1 mm in a 0.2% collagen gel which was then cultivated in a medium containing the aforementioned compounds at various concentrations for 2 days at 37° C. under 5% CO2. Glutaraldehyde was quickly added therein to make the final concentration 1%. The cultures were then left for 1 hour at room temperature so that the tissues were fixed, and the neurite outgrowth was microscopically observed. The results are found in FIG. 4.
When a medium not containing a subject compound was used, neurites were unable to grow towards the COS7 cell clump with the high concentration of Sema3A and grew only to the opposite direction.
In a similar way as in Example 4, suppression of the neurite outgrowth inhibitory activity was analyzed for the compounds, SPF-3059-1, SPF-3059-2 and SPF-3059-5. When the neurites outgrew in a complete concentric circular shape just like for the control groups where Sema3A-non-expressing COS7 cells were used, it was scored +++ (a strong inhibitory effect for Sema3A). When the outgrowth was found almost in a concentric circular shape accompanied with a little suppression of the outgrowth toward the direction of Sema3A-expressing COS cells, it was scored ++. […] When the outgrowth toward the direction of Sema3A-expressing COS cells was not found at all (no inhibitory effect for Sema3A), it was scored −.

[1] = molecular target: T2, mouse semaphorin 3A (Sema3A) (Mus musculus, UniProt O08665); assay: Suppression of growth cone collapse activity of Sema3A (chick embryo dorsal root ganglions); type: cell-based; conditions: E7 chick embryo dorsal root ganglions; 2 units/ml Sema3A added 1 hour after compound; concentration where collapse rate = (A+B)/2; read-out: IC50 of inhibition of the growth cone collapse activity of Sema3A (converted)
T2 sequence (O08665 21-772): T1 sequence (O08665 21-772)
Method: A 96-well plate (Sumitomo Bakelite Co., ltd. ) pre-coated with polylysine was further coated with laminine (20 μg/ml of laminine, for 1 hour at room temperature). Each well was added with 100 μl of medium (F12 medium containing 10% bovine fetal serum, 20 ng/ml of NGF, 100 units/ml of penicillin and 100 μg/ml of streptomycin) which media were then inoculated with dorsal root nerve ganglions excised from E7 (Embryonic day 7) chick embryo and were cultured for 16 to 20 hours under 5% CO2 and at 37° C. Subsequently, the object compounds were added to media at various concentrations and 2 units/ml of mouse semaphorin 3A (Sema3A) was added after cultivating for 1 hour. The cultures were further incubated for another 1 hour. Glutaraldehyde was quickly added therein after said 1 hour to make the final concentration 1%. The cultures were then left for 15 minutes at room temperature so that the tissue sections were fixed, and collapse rates of the growth cones were microscopically observed. A well with no addition of Sema3A was made the control.
The longitudinal and lateral axes in the figures represent the collapse rate of growth cones and the concentration of compounds, respectively. ●▪▴ show the results when Sema3A was added after the addition of the compounds and ◯[…]Δ show those when Sema3A was not added. Further, IC50 (μg/ml) of the inhibitors were determined by the method comprising: calculating the collapse rate of growth cone (A) % of the negative controls (neither compounds nor Sema3a was added); subsequently calculate the collapse rate of growth cone (B) % of the positive controls (compounds were not added but Sema3a was added); and the concentration was chosen for each compound from the chart where the collapse rate of growth cone met (A+B)/2(%), which was made IC50 level. The followings are the results.

COS7 cells = assay: Effect on cell proliferation (MTT); type: cell-based; conditions: Chlorocebus aethiops, COS-7, 48 h, two days, read-out: IC50, inhibitory rate for cell proliferation
Method: COS7 cells were seeded onto a 96-well plate (medium 100 μl/well) at 10000 cells per well. At the same time, SPF-3059-1 of various concentrations was added and the cells were cultivated for two days in the presence of 5% CO2 at 37° C. Each well was then added with 10 μl of MTT solution at 5 mg/ml and cultured for another one hour. Subsequently, the culture supernatant was removed and formazan (an MTT derivative produced in viable cells) accumulated in the cells was dissolved by the addition of 50 μl DMSO and then the absorbance at 570 nm was measured to determine the proliferation of COS7 cells. […] The longitudinal and lateral axes in the figure show cell proliferation and the SPF-3059-1 concentration, respectively. Besides, the standard deviation (n=4) was added to each column.
The same effect on cell proliferation as in Example 9 was examined for the compounds, SPF-3059-1, SPF-3059-2 and SPF-3059-5. The wells with these compounds were served as samples, the wells with PBS were served as control, and the wells for which the experiment was carried out without adding the cells was served as blank. IC50 (μg/ml), the inhibitory rate for cell proliferation, was determined, which is calculated by the equation shown below. The inhibitory rate for cell proliferation (%)=(1−(absorbance of a sample well−absorbance of the blank well)/(absorbance of the control well−absorbance of the blank well))×100

Row | Solubility (Solubility; methanol, DMSO) | Solubility (Solubility; water, hexane) | inhibition of neurite outgrowth-inhibitory action of Sema3A, score (Sema3A; 2 μg/ml compound) | IC50 [1] [µM] | inhibition of neurite outgrowth-inhibitory action of Sema3A, score (Sema3A; 6 μg/ml compound) | inhibition of neurite outgrowth-inhibitory action of Sema3A, score (Sema3A; 20 μg/ml compound) | Compound | IC50 (COS7 cells) [µg/mL]
1 | Soluble | Insoluble | +++ | 0.374 |  |  | CC(=O)c1c(C)c(C(=O)C2COc3cc(O)c(O)c(C(=O)O)c3C2=O)cc2c(=O)c3cc(O)c(O)cc3oc12 (stereo not drawn) [SPF-3059-3] | > 100
2 | Soluble | Insoluble | − | 3.57 | + | ++ | CC(=O)c1cc2c(=O)c3c(C(=O)O)cc(O)cc3oc2c(C(C)=O)c1-c1coc2cc(O)c(O)c(C(=O)O)c2c1=O [SPF-3059-4] | > 100
3 | Soluble | Insoluble | ++ | 0.169 | ++ | +++ | COCc1c(-c2cc3c(=O)c4c(C(=O)O)c(O)c(O)cc4oc3c(C(C)=O)c2C)oc2cc(O)c(O)c(C(=O)O)c2c1=O [SPF-3059-6] | > 100
4 | Soluble | Insoluble | + | 1.78 | + | ++ | CC(=O)c1c(C)c(C(=O)C2COc3cc(O)c(O)c(C(=O)O)c3C2=O)cc2c(=O)c3c(C(=O)O)cc(O)cc3oc12 (stereo not drawn) [SPF-3059-7] | > 100
5 | Soluble | Insoluble | + | 3.57 | + | ++ | CC(=O)c1cc2c(=O)c3c(C(=O)O)c(O)c(O)cc3oc2c(C(C)=O)c1-c1coc2cc(O)cc(C(=O)O)c2c1=O [SPF-3059-12] | > 100
